Data on 27 compounds can be found in US10392347B2, “2,4-dihydroxy-nicotinamides as APJ agonists” (BRISTOL-MYERS SQUIBB COMPANY, priority 2015, dated 2019).

Each structure is given as a SMILES string.

The target in the first test is T1, human APJ receptor (Homo sapiens, UniProt P35414).
T1 construct: expressed in transfected cells
T1 sequence (P35414 1-380): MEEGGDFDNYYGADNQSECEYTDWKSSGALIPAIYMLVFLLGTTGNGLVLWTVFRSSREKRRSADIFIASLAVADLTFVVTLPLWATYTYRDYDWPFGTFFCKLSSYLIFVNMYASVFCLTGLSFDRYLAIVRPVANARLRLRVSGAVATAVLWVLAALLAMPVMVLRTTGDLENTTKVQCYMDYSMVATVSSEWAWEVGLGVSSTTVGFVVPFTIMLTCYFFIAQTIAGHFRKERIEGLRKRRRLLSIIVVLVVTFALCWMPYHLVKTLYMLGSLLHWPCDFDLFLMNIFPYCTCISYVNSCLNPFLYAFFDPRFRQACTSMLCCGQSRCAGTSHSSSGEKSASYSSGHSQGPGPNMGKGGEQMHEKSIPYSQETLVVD
The test is described as follows: Intracellular cAMP accumulation assay (APJ hcAMP, HTRF). The format is cell-based. The conditions noted are these: APJ cAMP EC50 (nM), Table 1; HEK293 cells stably expressing human APJ, forskolin-stimulated cAMP. On the procedure: Intracellular cAMP Accumulation Assay
HEK293 cells stably expressing human APJ receptor were used to assess the activity of compounds. Cultured cells were detached and resuspended in the cAMP Homogeneous Time-Resolved Fluorescence (HTRF) assay buffer (Cisbio cat; #62AM4PEJ). […] Serial dilutions of a compound together with assay buffer containing […] and 2 μM forskolin were added to each well containing 5,000 cells and incubated for 30 minutes at room temperature. Subsequently, cAMP D2 reagent was added in the lysis buffer followed by the EuK antibody (Cisbio; cat #62AM4PEJ) and incubated for 60 min. The fluorescence emission ratio was measured using fluorometer. The intracellular cAMP concentrations (compound-stimulated inhibition of forskolin-mediated cAMP production) were calculated by extrapolation from a standard curve using known cAMP concentrations. The EC50 values were obtained by fitting the data to a sigmoidal concentration-response curve with variable slope.
The EC50 value of each compound is presented at the end of the example description.
The biological activity of the exemplified compounds of this invention determined by the assay described above is shown at the end of each example.
With `CCCCc1[nH]c(=O)c(C(=O)N2CC[C@H](c3ccccc3)C2)c(O)c1-c1c(OC)cccc1OC` [Example 28, 6-butyl-5-(2,6-dimethoxyphenyl)-3-[(3R)-3-phenylpyrrolidine-1-carbonyl]pyridine-2,4-diol], the EC50 was 0.01 to 10 nM.

Staying with this test, now noted: HEK293 cells stably expressing human APJ; read-out: Human APJ cAMP EC50 Potency range.
In the case of `CCCCc1nc(O)c(C(=O)N2CCC(c3ccc(Cl)cn3)C2)c(O)c1-c1c(OC)cccc1OC` (single isomer, unassigned) [Example 74, (6-butyl-5-(2,6-dimethoxyphenyl)-2,4-dihydroxypyridin-3-yl)(3-(5-chloropyridin-2-yl)pyrrolidin-1-yl)methanone], the EC50 fell in the range of 0.01 to 10 nM.

Still in this test, the particulars now being: Table 1; HEK293 cells stably expressing human APJ, forskolin-stimulated cAMP; read-out: APJ cAMP EC50.
For `CCCCc1nc(O)c(C(=O)N2CCN(c3nccc(C(F)(F)F)n3)CC2)c(O)c1-c1c(OC)cccc1OC` [Example 13, 6-butyl-5-(2,6-dimethoxyphenyl)-3-{4-[4-(trifluoromethyl)pyrimidin-2-yl]piperazine-1-carbonyl}pyridine-2,4-diol], the EC50 fell in the range of 10 to 100 nM.

On to `CCCCc1nc(O)c(C(=O)N2CCN(c3ccc(Cl)cc3)CC2)c(O)c1-c1c(OC)cccc1OC` [Example 68, 6-butyl-3-[4-(4-chlorophenyl)piperazine-1-carbonyl]-5-(2,6-dimethoxyphenyl)pyridine-2,4-diol], for which the EC50 lay within 10 to 100 nM. Same read-out and setting: as for `CCCCc1nc(O)c(C(=O)N2CCN(Cc3ccccc3F)CC2)c(O)c1-c1c(OC)cccc1OC` [Example 44, 6-butyl-5-(2,6-dimethoxyphenyl)-3-{4-[(2-fluorophenyl)methyl]piperiazine-1-carbonyl}pyridine-2.4-diol], the figure is 0.01 to 10 nM. Still for that read-out and setting: as for `CCCCc1nc(O)c(C(=O)N2CCC(c3cc(-c4ccco4)n[nH]3)CC2)c(O)c1-c1c(OC)cccc1OC` [Example 20, 6-butyl-5-(2,6-dimethoxyphenyl)-3-{4-[3-(furan-2-yl)-1H-pyrazol-5-yl]piperidine-1-carbonyl}pyridine-2,4-diol], the figure is 10 to 100 nM; as for `CCCCc1nc(O)c(C(=O)N2CCC(c3cccc(Cl)c3)CC2)c(O)c1-c1c(OC)cccc1OC` [Example 56, 6-butyl-3-[4-(3-chlorophenyl)piperidine-1-carbonyl]-5-(2,6-dimethoxyphenyl)pyridine-2,4-diol], 10 to 100 nM. With `CCCCc1nc(O)c(C(=O)N2CCC(c3ccccc3)CC2)c(O)c1-c1c(OC)cccc1OC` [Example 62, 6-butyl-5-(2,6-dimethoxyphenyl)-3-(4-phenylpiperidine-1-carbonyl)pyridine-2,4-diol], the EC50 is 10 to 100 nM. Still for that read-out and setting: as for `CCCCc1nc(O)c(C(=O)N2CCC(c3ccccc3Cl)CC2)c(O)c1-c1c(OC)cccc1OC` [Example 23, 6-butyl-3-[4-(2-chlorophenyl)piperidine-1-carbonyl]-5-(2,6-dimethoxyphenyl)pyridine-2,4-diol], the figure is 10 to 100 nM. On to `CCCCc1nc(O)c(C(=O)N2CCN(c3nnnn3-c3ccccc3)CC2)c(O)c1-c1c(OC)cccc1OC` [Example 52, 6-butyl-5-(2,6-dimethoxyphenyl)-3-[4-(1-phenyl-1H-1,2,3,4-tetrazol-5-yl)piperazine-1-carbonyl]pyridine-2,4-diol], for which the EC50 fell in the range of 0.01 to 10 nM. `CCCCc1nc(O)c(C(=O)N2CCN(c3ccccc3Cl)CC2)c(O)c1-c1c(OC)cccc1OC` [Example 57, 6-butyl-3-[4-(2-chlorophenyl)piperazine-1-carbonyl]-5-(2,6-dimethoxyphenyl)pyridine-2,4-diol]: the EC50 is 10 to 100 nM. Regarding `CCCCc1nc(O)c(C(=O)N2CCN(C(c3ccccc3)c3ccccc3)CC2)c(O)c1-c1c(OC)cccc1OC` [Example 16, 6-butyl-5-(2,6-dimethoxyphenyl)-3-[4-(diphenylmethyl)piperazine-1-carbonyl]pyridine-2,4-diol], the EC50 is 0.01 to 10 nM.

As to `CCCCc1nc(O)c(C(=O)N2CCN(c3ccc(OC)cc3)CC2)c(O)c1-c1c(OC)cccc1OC` [Example 18, 6-butyl-5-(2,6-dimethoxyphenyl)-3-[4-(4-methoxyphenyl)piperazine-1-carbonyl]pyridine-2,4-diol], the EC50 lay in the range of 10 to 100 nM. Regarding `CCCCc1nc(O)c(C(=O)N2CCC(c3nc4ccccc4o3)CC2)c(O)c1-c1c(OC)cccc1OC` [Example 32, 3-[4-(1,3-benzoxazol-2-yl)piperidine-1-carbonyl]-6-butyl-5-(2,6-dimethoxyphenyl)pyridine-2,4-diol], the EC50 lay in the range of 10 to 100 nM. Regarding `CCCCc1nc(O)c(C(=O)N2CCN(C(=O)c3ccccc3)CC2)c(O)c1-c1c(OC)cccc1OC` [Example 41, 3-(4-benzoylpiperazine-1-carbonyl)-6-butyl-5-(2,6-dimethoxyphenyl)pyridine-2,4-diol], the EC50 lay within 0.01 to 10 nM. On the same count and under the same terms, for `CCCCc1nc(O)c(C(=O)N2CCN(c3ccccc3)CC2)c(O)c1-c1c(OC)cccc1OC` [Example 30, 6-butyl-5-(2,6-dimethoxyphenyl)-3-(4-phenylpiperazine-1-carbonyl)pyridine-2,4-diol] the value was 10 to 100 nM.

The test is the same for the next values; noted with them: Table 2; HEK293 cells stably expressing human APJ, forskolin-stimulated cAMP; read-out: APJ cAMP EC50.
Consider `CCCCc1nc(O)c(C(=O)N2CCC(c3ccc(F)cc3)C2)c(O)c1-c1c(OC)cccc1OC` (single isomer, unassigned) [Example 39, 6-butyl-5-(2,6-dimethoxyphenyl)-3-[3-(4-fluorophenyl)pyrrolidine-1-carbonyl]pyridine-2,4-diol], for which the EC50 lay within 0.01 to 10 nM. For `CCCCc1nc(O)c(C(=O)N2CCC(c3ccc(F)cc3)C2)c(O)c1-c1c(OC)cccc1OC` (single isomer, unassigned) [Example 40, 6-butyl-5-(2,6-dimethoxyphenyl)-3-[3-(4-fluorophenyl)pyrrolidine-1-carbonyl]pyridine-2,4-diol], the EC50 lay in the range of 0.01 to 10 nM.

Staying with this test, now noted: Table 3; HEK293 cells stably expressing human APJ, forskolin-stimulated cAMP; read-out: APJ cAMP EC50.
For the compound `CCOCc1nc(O)c(C(=O)N2CCC(c3ncc(F)cc3F)C2)c(O)c1-c1c(OC)cccc1OC` (stereo not drawn) [Example 85, 3-[3-(3,5-difluoropyridin-2-yl)pyrrolidine-1-carbonyl]-5-(2,6-dimethoxyphenyl)-6-(ethoxymethyl)pyridine-2,4-diol], the 50% effective concentration (EC50) was in the range of 0.01 to 10 nM.

As for `CCOCc1nc(O)c(C(=O)N2CCC(c3ccc(Cl)cn3)C2)c(O)c1-c1c(OC)cccc1OC` (stereo not drawn) [Example 76, 3-[3-(5-chloropyridin-2-yl)pyrrolidine-1-carbonyl]-5-(2,6-dimethoxyphenyl)-6-(ethoxymethyl)pyridine-2,4-diol], the EC50 was 0.01 to 10 nM.

The test is the same for the next values; noted with them: Table 4; HEK293 cells stably expressing human APJ, forskolin-stimulated cAMP; read-out: Human cAMP EC50.
As for `CCCCc1nc(O)c(C(=O)N2CCN(Cc3cccc(C(F)(F)F)c3)CC2)c(O)c1-c1c(OC)cccc1OC` [Example 107, 6-butyl-5-(2,6-dimethoxyphenyl)-3-(4-{[3-(trifluoromethyl)phenyl]methyl}piperazine-1-carbonyl)pyridine-2,4-diol], the EC50 was 100 to 300 nM.

As for `CCCCc1nc(O)c(C(=O)N(C)CCOc2ccccc2)c(O)c1-c1c(OC)cccc1OC` [Example 99, 6-butyl-5-(2,6-dimethoxyphenyl)-2,4-dihydroxy-N-methyl-N-(2-phenoxyethyl)pyridine-3-carboxamide], the EC50 lay within 10 to 100 nM. Same read-out and setting: for `CCOCc1nc(O)c(C(=O)N2CCN(Cc3cccc(Cl)c3Cl)CC2)c(O)c1-c1c(OC)cccc1OC` [Example 104, 3-{4-[(2,3-dichlorophenyl)methyl]piperazine-1-carbonyl}-5-(2,6-dimethoxyphenyl)-6-(ethoxymethyl)pyridine-2,4-diol] the value was 0.01 to 10 nM. `CCCCc1nc(O)c(C(=O)N2CCN(CC3CC3)CC2)c(O)c1-c1c(OC)cccc1OC` [Example 111]: the EC50 lay in the range of 10 to 100 nM.

The test is the same for the next values; noted with them: Table 5; HEK293 cells stably expressing human APJ, forskolin-stimulated cAMP; read-out: Human cAMP EC50.
For `COc1cccc(OC)c1-c1c(C2CCCC2)nc(O)c(C(=O)N2CCC(c3cccc(F)c3)C2)c1O` (stereo not drawn) [Example 125, 6-cyclopentyl-5-(2,6-dimethoxyphenyl)-3-[3-(3-fluorophenyl)pyrrolidine-1-carbonyl]pyridine-2,4-diol], the EC50 lay in the range of 10 to 100 nM.

Still in this test, the particulars now being: Table 6; HEK293 cells stably expressing human APJ, forskolin-stimulated cAMP; read-out: Human cAMP EC50.
Turning to `CCOCc1nc(O)c(C(=O)N2CCC(c3ccc(F)cc3F)C2)c(O)c1-c1c(OC)cccc1OC` (stereo not drawn) [Example 131], the EC50 was 0.01 to 10 nM.

Staying with this test, now noted: Table 8; HEK293 cells stably expressing human APJ, forskolin-stimulated cAMP; read-out: Human cAMP EC50.
As for `CCNCc1nc(O)c(C(=O)N2CCC(c3ccccc3F)C2)c(O)c1-c1c(OC)cccc1OC` (stereo not drawn) [Example 151, 5-(2,6-dimethoxyphenyl)-6-[(ethylamino)methyl]-3-[3-(2-fluorophenyl)pyrrolidine-1-carbonyl]pyridine-2,4-diol], the EC50 was in the range of 10 to 100 nM.
